In patent US20150231067A1, “METHOD AND COMPOSITION FOR TREATING HYPERGLYCEMIA” (MannKind Corporation, priority 2012, published 2015):

What was measured:
[1] = system: healthy adult male subjects
Protocol: Additional pulmonary safety and pharmacokinetic parameters were also evaluated. Pulmonary safety as expressed by the incidence of pulmonary and other adverse events and changes in pulmonary function between Visit 1 (Screening) and Visit 3 (Follow-up) was studied. […] Clinical trial endpoints were based on a comparison of the following pharmacological and safety parameters determined in the trial subject population. Primary endpoints included the incidence and severity of reported AEs, including cough and dyspnea, nausea and/or vomiting, as well as changes from screening in vital signs, clinical laboratory tests and physical examinations.

[2] = literature evaluation; cited from earlier work
[3] = system: healthy adult male subjects; assay: Phase 1a trial of GLP-1/FDKP inhalation powder: insulin, glucose and glucagon response; assay type: in vivo, human; conditions: 1.5 mg GLP-1; two of the six subjects; value that defines hypoglycemia
Source text: Dropouts were not replaced. These dosages assumed a body mass of 70 kg.

[4] = Deacon et al., cited from earlier work
male ZDF rats = assay: Food consumption after oxyntomodulin/FDKP powder; assay type: in vivo, rat; conditions: 0.15-0.9 mg oxyntomodulin as 30% powder, rats fasted 24 hr
Protocol: Male ZDF rats (10/group) were assigned to one of four groups.
Rats were allowed to eat after receiving the experimental dose. A predetermined amount of food was given to the rats and the amount of food the rats consumed was measured at various times after the start of the experiment.

Molecule: CC[C@H](C)[C@H](NC(=O)[C@H](Cc1ccccc1)NC(=O)[C@H](CCC(=O)O)NC(=O)[C@H](CCCCN)NC(=O)[C@H](C)NC(=O)[C@H](C)NC(=O)[C@H](CCC(N)=O)NC(=O)CNC(=O)[C@H](CCC(=O)O)NC(=O)[C@H](CC(C)C)NC(=O)[C@H](Cc1ccc(O)cc1)NC(=O)[C@H](CO)NC(=O)[C@H](CO)NC(=O)[C@@H](NC(=O)[C@H](CC(=O)O)NC(=O)[C@H](CO)NC(=O)[C@@H](NC(=O)[C@H](Cc1ccccc1)NC(=O)[C@@H](NC(=O)CNC(=O)[C@H](CCC(=O)O)NC(=O)[C@H](C)NC(=O)[C@@H](N)Cc1c[nH]cn1)[C@@H](C)O)[C@@H](C)O)C(C)C)C(=O)N[C@@H](C)C(=O)N[C@@H](Cc1c[nH]c2ccccc12)C(=O)N[C@@H](CC(C)C)C(=O)N[C@H](C(=O)N[C@@H](CCCCN)C(=O)NCC(=O)N[C@@H](CCCNC(=N)N)C(N)=O)C(C)C [GLP-1, GLP-1(7-36)amide]
- subjects reporting symptoms of nausea, profuse sweating or vomiting ([1]; all doses, pulmonary): None of the subjects
- inhibition of gastric emptying ([1]; pulmonary dry powder, data not shown): lack inhibition of gastric emptying
- active GLP-1 concentration in blood plasma above which profuse sweating, nausea and vomiting are typically observed [2]: exceed 100 pmol/L
- glucose concentration lowered by GLP-1 [3]: below 3.5 mmol/L
- time for plasma active GLP-1 to fall to the physiological range (after inhalation of GLP-1/FDKP powder): ≤ 9 min
- metabolite peaks, intravenous compared to pulmonary administration (at comparable active concentrations): 8-9 fold greater
- degradation in the liver [4]: 45%
- GLP-1 instantaneously metabolized in the vein ([4]; intravenous, pigs): 40%
- GLP-1 metabolized in the deoxygenated blood in the lung ([4]; intravenous, pigs): 10%
- extraction by the portal bed ([4]; intravenous, pigs): 20%

Molecule: oxyntomodulin
- duration of significantly less food consumed than control rats (male ZDF rats): up to 6 hr
